Measurements from patent US11655216B2 (priority 2016, dated 2023).
Read-outs that look alike come from different tables or passages of the source.

Assays:
[1] = target: T1, glutathione-S-transferase (GST) tagged LXRalpha LBD (ligand binding domain) (Homo sapiens, UniProt Q13133); experiment: biochemical; conditions: for EC50: LXR alpha IP
T1 construct: purchased Invitrogen pv4655
T1 sequence (Q13133 209-447 limits assumed): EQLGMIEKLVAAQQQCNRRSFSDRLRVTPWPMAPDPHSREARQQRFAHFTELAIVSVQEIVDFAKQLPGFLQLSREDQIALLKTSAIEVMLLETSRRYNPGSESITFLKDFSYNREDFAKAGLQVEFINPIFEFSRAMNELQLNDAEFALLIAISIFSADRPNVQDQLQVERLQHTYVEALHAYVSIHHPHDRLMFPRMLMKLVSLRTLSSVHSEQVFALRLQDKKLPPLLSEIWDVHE
Summary of the method: (§1)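 Coactivator recruitment format: receptor LBD exposed to compounds, detection via Tb-antibody/fluorescein-peptide pair, room-temperature incubation, TR-FRET signal on a filter instrument.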

[2] = target: T2, glutathione-S-transferase (GST) tagged LXRbeta LBD (ligand binding domain) (Homo sapiens, UniProt P55055); experiment: LanthaScreen TR-FRET Liver X Receptor Coactivator Assay, LXR beta; type: biochemical; conditions: for EC50: LXR beta IP, potency (Inflection Point), compound-induced co-activator recruitment, TR-FRET; for Emax: read-out: LXR beta actiivty at max dose, efficacy (% Emax) in relation to reference dual agonist T0901317
T2 construct: purchased Invitrogen pv4658
T2 sequence (P55055 222-460 limits assumed): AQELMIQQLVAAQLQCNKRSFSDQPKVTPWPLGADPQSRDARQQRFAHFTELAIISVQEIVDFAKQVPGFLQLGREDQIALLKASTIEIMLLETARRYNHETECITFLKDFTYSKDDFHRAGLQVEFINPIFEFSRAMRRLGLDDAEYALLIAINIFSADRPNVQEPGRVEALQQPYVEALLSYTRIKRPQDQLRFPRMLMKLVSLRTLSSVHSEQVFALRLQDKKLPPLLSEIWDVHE
Summary of the method: as §1

[3] = potency (Inflection Point), compound-induced co-activator recruitment, TR-FRET
[4] = read-out: LXR alpha actiivty at max dose, efficacy (% Emax) in relation to reference dual agonist T0901317
[5] = read-out: LXR alpha actiivty at max dose

Emax [1, 4]	EC50 [2]	Emax [2]	LXR alpha IP [1, 3]	EC50 [1]	Emax [1, 5]	Structure (SMILES)	EC50 [1, 3]
50%	10 nM	118%				COc1ccccc1[C@@](O)(C(=O)N1CCC2(CC1)C[C@@H]2CCCOc1ccc(C(=O)N(C)C)c(Cl)c1)C(F)(F)F (single isomer, unassigned) [Example 14-5, 2-chloro-N,N-dimethyl-4-(3-((S or R)-6-((R or S)-3,3,3-trifluoro-2-hydroxy-2-(2-methoxyphenyl)propanoyl)-6-azaspiro[2.5]octan-1-yl)propoxy)benzamide]	231 nM
0%	83 nM	80%	No IP			COc1cccc([C@](O)(C(=O)N2CCC3(CC2)C[C@H]3CCCOc2ccc(C(=O)N(C)C)c(Cl)c2)C(F)(F)F)c1 (single isomer, unassigned) [Example 14-4, 2-chloro-N,N-dimethyl-4-(3-((R or S)-6-((S or R)-3,3,3-trifluoro-2-hydroxy-2-(3-methoxyphenyl)propanoyl)-6-azaspiro[2.5]octan-1-yl)propoxy)benzamide]	
25%	26 nM	90%				CN(C)C(=O)c1ccc(OCCC2CC3(CCN(C(=O)C(C)(C)c4ccccc4)CC3)C2)cc1Cl [Example 34-2, 2-chloro-N,N-dimethyl-4-(2-(7-(2-methyl-2-phenylpropanoyl)-7-azaspiro[3.5]nonan-2-yl)ethoxy)benzamide]	268 nM
8%	26 nM	33%	No IP			CN(C)C(=O)c1ccc(OCC[C@@H]2CC23CCN(C(=O)C(O)(c2cccc4c2OC(F)(F)O4)C(F)(F)F)CC3)cc1Cl (single isomer, unassigned) [Example 12-16, 2-chloro-4-(2-((1S or 1R)-6-(2-(2,2-difluorobenzo[d][1, 3]dioxol-4-yl)-3,3,3-trifluoro-2-hydroxypropanoyl)-6-azaspiro[2.5]octan-1-yl)ethoxy)-N,N-dimethylbenzamide]	
	25 nM	51%		663 nM	22%	COc1cccc(C(O)(C(=O)N2CCC3(CCC(Oc4ccc(C(=O)N(C)C)c(Cl)c4)CC3)CC2)C(F)(F)F)c1 (single isomer, unassigned) [Example 1-1, 2-chloro-N,N-dimethyl-4-(3-((R or S)-3,3,3-trifluoro-2-hydroxy-2-(3-methoxyphenyl)propanoyl)-3-azaspiro[5.5]undecan-9-yloxy)benzamide]	
	19 nM	88%		506 nM	28%	CN(C)C(=O)c1ccc(OCCC[C@H]2CC23CCN(C(=O)[C@](O)(c2ccccc2)C(F)(F)F)CC3)nc1Cl (single isomer, unassigned) [Example 15-1, 2-chloro-N,N-dimethyl-6-(3-((S or R)-6-((R or S)-3,3,3-trifluoro-2-hydroxy-2-phenylpropanoyl)-6-azaspiro[2.5]octan-1-yl)propoxy)nicotinamide]	

Structure (SMILES)	Emax [1, 4]	EC50 [2]	Emax [2]	LXR alpha IP [1, 3]	EC50 [1]	Emax [1, 5]	EC50 [1, 3]
CN(C)C(=O)c1ccc(OCC(C)(C)CCC2CCN(C(=O)C(O)(c3ccccc3)C(F)(F)F)CC2)cc1Cl (single isomer, unassigned) [Example 29-1, (R or S)-2-chloro-4-(2,2-dimethyl-4-(1-(3,3,3-trifluoro-2-hydroxy-2-phenylpropanoyl)piperidin-4-yl)butoxy)-N,N-dimethylbenzamide]	27%	173 nM	48%				911 nM
CCOC(=O)N1CCN(C(=O)c2ccc(OCCCCC3CCN(C(=O)C(O)(c4ccccc4)C(F)(F)F)CC3)nc2Cl)CC1 (stereo not drawn) [Example 3-18, ethyl 4-(2-chloro-6-(4-(1-(3,3,3-trifluoro-2-hydroxy-2-phenylpropanoyl)piperidin-4-yl)butoxy)nicotinoyl) piperazine-l-carboxylate]	33%	17 nM	75%				498 nM
